Assay results reported in US20220348565A1, “PHARMACEUTICAL COMPOUNDS” (SENTINEL ONCOLOGY LIMITED, priority 2019, published 2022).

Columns and labels:
Assay in all cases: DiscoverX KinomeScreen kinase selectivity competition binding assay
[1] = target: T1, panel of ninety-seven kinases (Homo sapiens, UniProt Q9HBH9); details: MKNK2; read-out: % Ctrl @ 3 μM
T1 construct: purchased DiscoverX; host or cells: T7 phage in E. coli (BL21-derived) for most kinases; HEK-293 for the rest
Method: (§1) Atropisomer A-2 has been tested for off-target activity against a panel of ninety-seven kinases distributed across the kinome at a concentration of 3 μM using the DiscoverX KinomeScreen assay. The DiscoverX KinomeScreen assay is a site-directed competition binding assay which measures the binding affinity of a compound to a kinase, by use of a solid supported control compound which can bind or capture the kinases in solution. In the absence of a kinase-inhibitor test compound, all of the kinase will bind to the solid support. If a kinase-inhibitor test compound is added to the assay mix, the amount of kinase binding to the solid support will be reduced, the extent of reduction being dependent on the potency of the test compound as a kinase inhibitor. […] For most assays, kinase-tagged T7 phage strains were grown in parallel in 24-well blocks in an E. coli host derived from the BL21 strain. E. coli were grown to log-phase and infected with T7 phage from a frozen stock (multiplicity of infection=0.4) and incubated with shaking at 32° C. until lysis (90-150 minutes). The lysates were centrifuged (6,000×g) and filtered (0.2 μm) to remove cell debris. The remaining kinases were produced in HEK-293 cells and subsequently tagged with DNA for qPCR detection. Streptavidin-coated magnetic beads were treated with biotinylated small molecule ligands for 30 minutes at room temperature to generate affinity resins for kinase assays. The liganded beads were blocked with excess biotin and washed with blocking buffer (SeaBlock (Pierce), 1% BSA, 0.05% Tween 20, 1 mM DTT) to remove unbound ligand and to reduce non-specific phage binding. […] Test compounds were prepared as 40× stocks in 100% DMSO and directly diluted into the assay. All reactions were performed in polypropylene 384-well plates in a final volume of 0.02 ml. […] The beads were then re-suspended in elution buffer (1×PBS, 0.05% Tween 20, 0.5 μM non-biotinylated affinity ligand) and incubated at room temperature with shaking for 30 minutes. The kinase concentration in the eluates was measured by qPCR. Compounds that bind the kinase active site and directly (sterically) or indirectly (allosterically) prevent kinase binding to the immobilized ligand, will reduce the amount of kinase captured on the solid support. […] The strength of binding of the test molecule to the kinase can be expressed as the percent control (% Ctrl) The compound(s) were screened at 3000 nM concentration, and results for primary screen binding interactions are reported as ‘% Ctrl’, where lower numbers indicate stronger hits in the matrix on the following page(s). [formula] • negative control=DMSO (100% Ctrl) • positive control=control compound (0% Ctrl)

[2] = target: T2, panel of ninety-seven kinases (Homo sapiens, UniProt Q02763); details: TEK; read-out: % Ctrl @ 3 μM
T2 construct: purchased DiscoverX; host or cells: T7 phage in E. coli (BL21-derived) for most kinases; HEK-293 for the rest
Method: as §1

[3] = target: T3, panel of ninety-seven kinases (Homo sapiens, UniProt Q15831); details: STK11; read-out: % Ctrl @ 3 μM
T3 construct: purchased DiscoverX; host or cells: T7 phage in E. coli (BL21-derived) for most kinases; HEK-293 for the rest
Method: as §1

[4] = target: T4, panel of ninety-seven kinases (Homo sapiens, UniProt P07333); details: CSF1R; read-out: % Ctrl @ 3 μM
T4 construct: purchased DiscoverX; host or cells: T7 phage in E. coli (BL21-derived) for most kinases; HEK-293 for the rest
Method: as §1

[5] = target: T5, panel of ninety-seven kinases (Homo sapiens, UniProt Q96GD4); details: AURKB; read-out: % Ctrl @ 3 μM
T5 construct: purchased DiscoverX; host or cells: T7 phage in E. coli (BL21-derived) for most kinases; HEK-293 for the rest
Method: as §1

[6] = target: T6, panel of ninety-seven kinases (Homo sapiens, UniProt Q13153); details: PAK1; read-out: % Ctrl @ 3 μM
T6 construct: purchased DiscoverX; host or cells: T7 phage in E. coli (BL21-derived) for most kinases; HEK-293 for the rest
Method: as §1

[7] = target: T7, panel of ninety-seven kinases (Homo sapiens, UniProt O14920); details: IKBKB; read-out: % Ctrl @ 3 μM
T7 construct: purchased DiscoverX; host or cells: T7 phage in E. coli (BL21-derived) for most kinases; HEK-293 for the rest
Method: as §1

[8] = target: T8, panel of ninety-seven kinases (Homo sapiens, UniProt O60674); details: JAK2; read-out: % Ctrl @ 3 μM
T8 construct: purchased DiscoverX; host or cells: T7 phage in E. coli (BL21-derived) for most kinases; HEK-293 for the rest
Method: as §1

[9] = target: T9, panel of ninety-seven kinases (Homo sapiens, UniProt P29317); details: EPHA2; read-out: % Ctrl @ 3 μM
T9 construct: purchased DiscoverX; host or cells: T7 phage in E. coli (BL21-derived) for most kinases; HEK-293 for the rest
Method: as §1

[10] = target: T10, panel of ninety-seven kinases (Homo sapiens, UniProt P08069); details: IGF1R; read-out: % Ctrl @ 3 μM
T10 construct: purchased DiscoverX; host or cells: T7 phage in E. coli (BL21-derived) for most kinases; HEK-293 for the rest
Method: as §1

[11] = target: T11, panel of ninety-seven kinases (Homo sapiens, UniProt Q00526); details: CDK3; read-out: % Ctrl @ 3 μM
T11 construct: purchased DiscoverX; host or cells: T7 phage in E. coli (BL21-derived) for most kinases; HEK-293 for the rest
Method: as §1

[12] = target: T12, panel of ninety-seven kinases (Homo sapiens, UniProt Q9H093); details: NUAK2; read-out: % Ctrl @ 3 μM
T12 construct: purchased DiscoverX; host or cells: T7 phage in E. coli (BL21-derived) for most kinases; HEK-293 for the rest
Method: as §1

[13] = target: T13, panel of ninety-seven kinases (Homo sapiens, UniProt Q13177); details: PAK2; read-out: % Ctrl @ 3 μM
T13 construct: purchased DiscoverX; host or cells: T7 phage in E. coli (BL21-derived) for most kinases; HEK-293 for the rest
Method: as §1

[14] = target: T14, panel of ninety-seven kinases (Homo sapiens, UniProt O96013); details: PAK4; read-out: % Ctrl @ 3 μM
T14 construct: purchased DiscoverX; host or cells: T7 phage in E. coli (BL21-derived) for most kinases; HEK-293 for the rest
Method: as §1

[15] = target: T15, panel of ninety-seven kinases (Homo sapiens, UniProt O14965); details: AURKA; read-out: % Ctrl @ 3 μM
T15 construct: purchased DiscoverX; host or cells: T7 phage in E. coli (BL21-derived) for most kinases; HEK-293 for the rest
Method: as §1

[16] = target: T16, panel of ninety-seven kinases (Homo sapiens, UniProt P07949); details: RET; read-out: % Ctrl @ 3 μM
T16 construct: purchased DiscoverX; host or cells: T7 phage in E. coli (BL21-derived) for most kinases; HEK-293 for the rest
Method: as §1

[17] = target: T17, panel of ninety-seven kinases (Homo sapiens, UniProt P17612); details: PRKACA; read-out: % Ctrl @ 3 μM
T17 construct: purchased DiscoverX; host or cells: T7 phage in E. coli (BL21-derived) for most kinases; HEK-293 for the rest
Method: as §1

[18] = target: T18, panel of ninety-seven kinases (Homo sapiens, UniProt P31751); details: AKT2; read-out: % Ctrl @ 3 μM
T18 construct: purchased DiscoverX; host or cells: T7 phage in E. coli (BL21-derived) for most kinases; HEK-293 for the rest
Method: as §1

[19] = target: T19, panel of ninety-seven kinases (Homo sapiens, UniProt Q15759); details: MAPK11; read-out: % Ctrl @ 3 μM
T19 construct: purchased DiscoverX; host or cells: T7 phage in E. coli (BL21-derived) for most kinases; HEK-293 for the rest
Method: as §1

[20] = target: T20, panel of ninety-seven kinases (Homo sapiens, UniProt P31749); details: AKT1; read-out: % Ctrl @ 3 μM
T20 construct: purchased DiscoverX; host or cells: T7 phage in E. coli (BL21-derived) for most kinases; HEK-293 for the rest
Method: as §1

[21] = target: T21, panel of ninety-seven kinases (Homo sapiens, UniProt Q9H4B4); details: PLK3; read-out: % Ctrl @ 3 μM
T21 construct: purchased DiscoverX; host or cells: T7 phage in E. coli (BL21-derived) for most kinases; HEK-293 for the rest
Method: as §1

T1 sequence (Q9HBH9 whole entry): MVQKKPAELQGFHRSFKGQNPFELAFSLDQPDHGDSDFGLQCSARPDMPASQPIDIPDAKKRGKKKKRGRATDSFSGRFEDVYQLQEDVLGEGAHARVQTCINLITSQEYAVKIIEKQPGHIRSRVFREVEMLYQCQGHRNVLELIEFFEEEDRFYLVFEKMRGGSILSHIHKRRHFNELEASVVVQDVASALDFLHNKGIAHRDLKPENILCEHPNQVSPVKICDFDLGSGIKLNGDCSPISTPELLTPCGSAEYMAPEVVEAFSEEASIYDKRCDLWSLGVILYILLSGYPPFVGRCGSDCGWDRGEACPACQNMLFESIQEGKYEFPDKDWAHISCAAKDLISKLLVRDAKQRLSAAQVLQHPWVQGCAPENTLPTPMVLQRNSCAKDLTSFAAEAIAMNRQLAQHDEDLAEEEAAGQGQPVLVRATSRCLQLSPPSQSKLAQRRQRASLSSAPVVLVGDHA
T13 sequence (Q13177 whole entry): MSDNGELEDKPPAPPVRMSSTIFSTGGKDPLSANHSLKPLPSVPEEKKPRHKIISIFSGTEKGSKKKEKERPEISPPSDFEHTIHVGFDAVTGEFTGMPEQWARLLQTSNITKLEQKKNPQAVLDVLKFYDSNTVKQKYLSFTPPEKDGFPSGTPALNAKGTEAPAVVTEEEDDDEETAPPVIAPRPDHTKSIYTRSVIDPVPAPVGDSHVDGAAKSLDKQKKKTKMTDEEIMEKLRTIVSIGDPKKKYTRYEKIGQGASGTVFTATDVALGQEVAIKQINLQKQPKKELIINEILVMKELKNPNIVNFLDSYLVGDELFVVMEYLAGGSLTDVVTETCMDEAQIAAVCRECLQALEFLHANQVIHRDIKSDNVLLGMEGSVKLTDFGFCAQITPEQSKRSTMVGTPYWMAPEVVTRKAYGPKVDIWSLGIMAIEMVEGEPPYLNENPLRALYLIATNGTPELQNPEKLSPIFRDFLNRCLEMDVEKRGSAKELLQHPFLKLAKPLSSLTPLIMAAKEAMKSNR
T19 sequence (Q15759 whole entry): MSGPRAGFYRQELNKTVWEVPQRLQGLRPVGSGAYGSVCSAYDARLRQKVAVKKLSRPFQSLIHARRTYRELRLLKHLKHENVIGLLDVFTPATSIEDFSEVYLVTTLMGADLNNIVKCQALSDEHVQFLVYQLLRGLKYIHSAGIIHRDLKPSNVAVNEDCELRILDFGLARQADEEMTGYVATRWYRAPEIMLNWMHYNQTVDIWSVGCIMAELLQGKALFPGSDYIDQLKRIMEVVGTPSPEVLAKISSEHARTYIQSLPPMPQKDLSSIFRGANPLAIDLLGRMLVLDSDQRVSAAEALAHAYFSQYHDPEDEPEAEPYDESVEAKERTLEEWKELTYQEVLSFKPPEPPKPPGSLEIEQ
T6 sequence (Q13153 whole entry): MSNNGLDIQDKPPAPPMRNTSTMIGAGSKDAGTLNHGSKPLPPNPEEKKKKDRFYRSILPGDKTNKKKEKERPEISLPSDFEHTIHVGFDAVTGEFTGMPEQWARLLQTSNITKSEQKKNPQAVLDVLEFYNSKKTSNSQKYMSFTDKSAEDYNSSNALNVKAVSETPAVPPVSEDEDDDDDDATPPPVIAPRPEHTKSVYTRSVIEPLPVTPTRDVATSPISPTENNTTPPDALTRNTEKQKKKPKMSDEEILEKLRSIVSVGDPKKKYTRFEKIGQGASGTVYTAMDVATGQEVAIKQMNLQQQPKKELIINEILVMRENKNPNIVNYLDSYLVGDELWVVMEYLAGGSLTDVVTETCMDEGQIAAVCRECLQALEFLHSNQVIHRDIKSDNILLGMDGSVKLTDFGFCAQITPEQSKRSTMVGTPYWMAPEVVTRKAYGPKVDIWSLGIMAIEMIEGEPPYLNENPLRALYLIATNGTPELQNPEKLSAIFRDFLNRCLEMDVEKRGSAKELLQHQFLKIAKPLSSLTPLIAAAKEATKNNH
T16 sequence (P07949 29-1114): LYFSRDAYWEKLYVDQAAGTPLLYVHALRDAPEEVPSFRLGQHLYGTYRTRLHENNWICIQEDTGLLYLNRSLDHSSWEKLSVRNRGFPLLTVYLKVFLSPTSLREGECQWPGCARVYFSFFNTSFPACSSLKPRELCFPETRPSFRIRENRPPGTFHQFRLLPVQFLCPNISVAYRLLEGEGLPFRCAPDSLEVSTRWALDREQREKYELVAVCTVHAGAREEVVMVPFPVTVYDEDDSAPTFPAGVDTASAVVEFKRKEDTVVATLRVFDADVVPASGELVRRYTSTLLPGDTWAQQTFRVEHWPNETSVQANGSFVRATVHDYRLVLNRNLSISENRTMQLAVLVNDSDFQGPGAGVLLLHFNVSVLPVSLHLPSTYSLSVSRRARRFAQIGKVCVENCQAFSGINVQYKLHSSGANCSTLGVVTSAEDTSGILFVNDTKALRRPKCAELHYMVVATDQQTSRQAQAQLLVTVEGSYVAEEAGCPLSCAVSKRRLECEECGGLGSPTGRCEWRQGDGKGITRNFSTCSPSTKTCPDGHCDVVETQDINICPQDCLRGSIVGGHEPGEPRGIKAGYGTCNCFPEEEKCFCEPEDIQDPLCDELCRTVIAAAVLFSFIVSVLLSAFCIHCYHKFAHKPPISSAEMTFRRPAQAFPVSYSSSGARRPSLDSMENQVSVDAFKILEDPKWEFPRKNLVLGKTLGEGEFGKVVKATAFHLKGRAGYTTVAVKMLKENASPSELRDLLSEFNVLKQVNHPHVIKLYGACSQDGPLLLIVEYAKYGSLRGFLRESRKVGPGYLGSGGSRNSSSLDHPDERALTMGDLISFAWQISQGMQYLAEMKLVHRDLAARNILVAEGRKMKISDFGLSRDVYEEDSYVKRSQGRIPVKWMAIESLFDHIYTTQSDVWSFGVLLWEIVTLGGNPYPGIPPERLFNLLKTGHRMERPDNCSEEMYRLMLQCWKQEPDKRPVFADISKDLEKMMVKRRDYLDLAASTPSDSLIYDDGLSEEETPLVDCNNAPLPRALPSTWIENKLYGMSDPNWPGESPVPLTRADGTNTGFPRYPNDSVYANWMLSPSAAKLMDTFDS
T5 sequence (Q96GD4 whole entry): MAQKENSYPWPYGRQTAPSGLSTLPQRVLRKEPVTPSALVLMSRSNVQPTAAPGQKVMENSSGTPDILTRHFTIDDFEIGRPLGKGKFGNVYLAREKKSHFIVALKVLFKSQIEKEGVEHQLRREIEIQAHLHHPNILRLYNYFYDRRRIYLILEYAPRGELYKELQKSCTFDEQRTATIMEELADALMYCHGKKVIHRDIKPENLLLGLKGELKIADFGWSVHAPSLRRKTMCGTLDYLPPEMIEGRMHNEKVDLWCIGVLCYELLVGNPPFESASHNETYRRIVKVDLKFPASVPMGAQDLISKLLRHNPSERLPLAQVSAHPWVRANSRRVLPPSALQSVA
T12 sequence (Q9H093 whole entry): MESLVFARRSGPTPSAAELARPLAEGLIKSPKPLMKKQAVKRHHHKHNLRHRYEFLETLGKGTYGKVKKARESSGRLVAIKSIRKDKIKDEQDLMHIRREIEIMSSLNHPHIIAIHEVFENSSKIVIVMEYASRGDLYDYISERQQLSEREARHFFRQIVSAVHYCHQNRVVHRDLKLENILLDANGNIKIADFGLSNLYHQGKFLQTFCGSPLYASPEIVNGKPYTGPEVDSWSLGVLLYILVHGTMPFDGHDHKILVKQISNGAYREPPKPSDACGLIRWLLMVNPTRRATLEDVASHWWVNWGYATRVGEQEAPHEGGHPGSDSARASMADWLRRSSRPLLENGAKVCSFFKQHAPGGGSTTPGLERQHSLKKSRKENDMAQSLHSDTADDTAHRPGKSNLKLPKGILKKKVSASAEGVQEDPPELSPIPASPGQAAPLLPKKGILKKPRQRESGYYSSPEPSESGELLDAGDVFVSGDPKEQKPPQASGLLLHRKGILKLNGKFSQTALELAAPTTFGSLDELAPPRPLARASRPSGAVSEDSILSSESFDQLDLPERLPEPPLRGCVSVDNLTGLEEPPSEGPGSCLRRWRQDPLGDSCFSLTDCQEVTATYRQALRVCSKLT
T14 sequence (O96013 whole entry): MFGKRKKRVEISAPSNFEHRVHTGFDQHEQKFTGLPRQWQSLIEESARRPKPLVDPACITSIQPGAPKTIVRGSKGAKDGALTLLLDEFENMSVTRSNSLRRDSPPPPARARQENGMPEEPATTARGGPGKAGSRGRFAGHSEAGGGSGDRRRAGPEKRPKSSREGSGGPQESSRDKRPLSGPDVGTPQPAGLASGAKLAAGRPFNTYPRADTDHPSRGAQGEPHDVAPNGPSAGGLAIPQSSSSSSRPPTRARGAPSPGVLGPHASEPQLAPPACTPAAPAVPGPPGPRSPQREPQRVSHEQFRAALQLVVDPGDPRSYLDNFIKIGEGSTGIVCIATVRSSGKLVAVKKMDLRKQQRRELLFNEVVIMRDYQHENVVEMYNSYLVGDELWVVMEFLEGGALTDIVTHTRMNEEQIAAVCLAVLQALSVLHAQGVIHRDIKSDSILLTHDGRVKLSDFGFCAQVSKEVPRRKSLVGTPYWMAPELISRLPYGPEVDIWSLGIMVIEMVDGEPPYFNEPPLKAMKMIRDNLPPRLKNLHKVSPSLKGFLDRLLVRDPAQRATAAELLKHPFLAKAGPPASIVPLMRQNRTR
T3 sequence (Q15831 whole entry): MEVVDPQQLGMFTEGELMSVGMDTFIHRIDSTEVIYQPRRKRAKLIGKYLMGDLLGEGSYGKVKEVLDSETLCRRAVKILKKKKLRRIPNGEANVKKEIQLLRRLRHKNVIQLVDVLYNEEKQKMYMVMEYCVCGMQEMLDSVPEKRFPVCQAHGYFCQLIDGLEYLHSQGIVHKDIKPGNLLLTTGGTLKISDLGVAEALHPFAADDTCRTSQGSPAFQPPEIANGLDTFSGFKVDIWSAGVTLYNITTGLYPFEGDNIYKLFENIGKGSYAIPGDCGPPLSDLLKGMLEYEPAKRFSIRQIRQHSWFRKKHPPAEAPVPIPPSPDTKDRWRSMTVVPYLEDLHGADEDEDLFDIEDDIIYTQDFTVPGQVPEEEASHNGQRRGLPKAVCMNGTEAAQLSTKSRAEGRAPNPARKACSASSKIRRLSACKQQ

percent of control kinase binding to immobilized ligand at 3 µM [1]: 85%
percent of control kinase binding to immobilized ligand at 3 µM [2]: 99%
percent of control kinase binding to immobilized ligand at 3 µM [3]: 81%
percent of control kinase binding to immobilized ligand at 3 µM [4]: 100%
percent of control kinase binding to immobilized ligand at 3 µM [5]: 84%
percent of control kinase binding to immobilized ligand at 3 µM [6]: 87%
percent of control kinase binding to immobilized ligand at 3 µM [7]: 96%
percent of control kinase binding to immobilized ligand at 3 µM [8]: 80%
percent of control kinase binding to immobilized ligand at 3 µM [9]: 100%
percent of control kinase binding to immobilized ligand at 3 µM [10]: 100%
percent of control kinase binding to immobilized ligand at 3 µM [11]: 100%
percent of control kinase binding to immobilized ligand at 3 µM [12]: 99%
percent of control kinase binding to immobilized ligand at 3 µM [13]: 100%
percent of control kinase binding to immobilized ligand at 3 µM [14]: 100%
percent of control kinase binding to immobilized ligand at 3 µM [15]: 98%
percent of control kinase binding to immobilized ligand at 3 µM [16]: 95%
percent of control kinase binding to immobilized ligand at 3 µM [17]: 100%
percent of control kinase binding to immobilized ligand at 3 µM [18]: 100%
percent of control kinase binding to immobilized ligand at 3 µM [19]: 99%
percent of control kinase binding to immobilized ligand at 3 µM [20]: 98%
percent of control kinase binding to immobilized ligand at 3 µM [21]: 87%
Structure (SMILES): CN(C)CCNC(=O)c1ccc(-c2ccc(-c3ccc(Cl)cc3)n2-c2ccccc2C(F)(F)F)cc1 (single isomer, unassigned) [Atropisomer A-2, 4-[5-(4-chlorophenyl)-1-[2-(trifluoromethyl)phenyl]pyrrol-2-yl]-N-[2-(dimethylamino)ethyl]benzamide]
